Experimental data from patent publication US9200309B2, “Method for screening for S1P lyase inhibitors using cultured cells” (Daiichi Sankyo Company, Limited, priority 2010, dated 2015).
Like-named read-outs stand apart in the source and are kept apart here.

Legend:
Assay type in all cases: cell-based
[1] = target: T1, SPL (Mus musculus, UniProt Q8R0X7); experiment: Measurement of SPL activity in lysate of cells treated with compound
T1 construct: IT-79MTNC3 cells which are a mouse thymic epithelial cell line can be appropriately selected using the expression of an SPL protein as an index; host or cells: IT-79MTNC3 (mouse thymic epithelial cell line)
T1 sequence (Q8R0X7 1-568): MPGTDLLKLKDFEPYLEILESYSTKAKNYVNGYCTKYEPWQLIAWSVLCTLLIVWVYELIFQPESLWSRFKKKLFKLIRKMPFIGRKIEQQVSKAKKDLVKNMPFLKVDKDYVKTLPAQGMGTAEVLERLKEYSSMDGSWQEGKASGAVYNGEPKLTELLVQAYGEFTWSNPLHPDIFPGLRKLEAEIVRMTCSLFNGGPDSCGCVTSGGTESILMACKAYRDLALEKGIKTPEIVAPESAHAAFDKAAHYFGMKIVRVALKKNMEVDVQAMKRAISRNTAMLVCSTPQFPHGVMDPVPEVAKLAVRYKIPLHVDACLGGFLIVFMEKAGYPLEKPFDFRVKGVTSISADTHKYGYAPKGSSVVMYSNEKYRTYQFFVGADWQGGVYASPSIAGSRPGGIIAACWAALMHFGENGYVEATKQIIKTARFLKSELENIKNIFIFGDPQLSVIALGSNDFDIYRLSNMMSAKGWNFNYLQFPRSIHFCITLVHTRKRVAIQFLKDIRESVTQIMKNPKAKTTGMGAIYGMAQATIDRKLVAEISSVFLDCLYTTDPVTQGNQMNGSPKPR
Procedure: In order to prepare a lysate of cells treated with a test compound, IT-79MTNC3 cells were suspended in DMEM-10% FBS containing 25 μM fumonisin B1 and seeded in a 12-well plate for cell culture at 1×10^5 cells/well, and then cultured at 37° C. in the presence of 5% CO2 for a whole day and night. On the next day, the culture supernatant was first removed, and then, 500 μL of DMEM-0.1% BSA (or VB6-free DMEM-0.1% BSA) containing a serially diluted test compound was added thereto, and the cells were cultured at 37° C. in the presence of 5% CO2 for 4.5 hours. Thereafter, 55 μL of DMEM-0.1% BSA (or VB6-free DMEM-0.1% BSA) containing 10 μM dhSph was added thereto, and the cells were cultured at 37° C. in the presence of 5% CO2 for 30 minutes. After washing the IT-79MTNC3 cells with PBS, the cells were collected. Then, 150 μL of a homogenization buffer was added to the cells, and the resulting mixture was subjected to an ultrasonic treatment using a sonicator, followed by centrifugation at 4° C. for 3 minutes at 1,000 g, and the resulting supernatant was used as a cell lysate. The quantitative determination of protein by the Bradford method was carried out using a portion of the cell lysate. […]
In order to measure the SPL activity in the lysate prepared using the cells treated with the compound, the cell lysate was diluted to 1 mg protein/mL with a homogenization buffer, and the diluted solution was mixed with ^3H-dhS1P (3.4 nM) as a substrate and a reaction buffer (a 0.1 M potassium phosphate solution (pH-7.4), 25 mM NaF, 5 mM Na3VO4, 1 mM EDTA, 1 mM DTT, 0.1% Triton X-100, 2 μM cold dhS1P) to make the final volume 50 μL. […] A 30 μL portion of the resulting organic layer was taken and mixed with 5 mL of the liquid scintillator, and the radioactivity thereof was measured using a liquid scintillation counter. The obtained count was assumed to reflect the amount of degradation products by the SPL reaction, and the SPL activity of each sample was calculated as a ratio of that in the group without treatment with the compound.

[2] = target: T1, SPL; experiment: Measurement of intracellular S1P by LC-MS in IT-79MTNC3 cells
Procedure: In order to evaluate the activity of a test compound for accumulating S1P, IT-79MTNC3 cells were suspended in DMEM-10% FBS containing 25 μM fumonisin B1, and seeded in a 24-well plate for cell culture at 5×10^4 cells/well, and then cultured at 37° C. in the presence of 5% CO2 for a whole day and night. On the next day, the culture supernatant was first removed, and then, 450 μL of DMEM-0.1% BSA (or VB6-free DMEM-0.1% BSA) containing a serially diluted test compound was added thereto, and the cells were cultured at 37° C. in the presence of 5% CO2 for 4.5 hours. Thereafter, 50 μL of DMEM-0.1% BSA (or VB6-free DMEM-0.1% BSA) containing 10 μM Sph (Enzo Life Sciences) was added thereto, and the cells were cultured at 37° C. in the presence of 5% CO2 for 30 minutes. After the culture supernatant was removed, the cells were washed with PBS and collected. Then, 150 μL of a mixed solution of acetonitrile and 1 M hydrochloric acid (acetonitrile:hydrochloric acid=4:1) was added to the cells, and the resulting mixture was subjected to an ultrasonic treatment using a sonicator. The amount of S1P was measured by LC-MS by Mitsubishi Chemical Medience Corporation. In the case of using VB6-free DMEM, before the culture medium containing the test compound was added, washing was carried out twice with 600 μL of VB6-free DMEM-0.1% BSA, thereby preventing the carryover of the vitamin B6 group contained in DMEM used when seeding.

[3] = target: T1, SPL; experiment: SPA using known SPL inhibitor: accumulation of 3H-dhS1P in IT-79MTNC3 cells; settings: for EC50: read-out: EC50, activity of inhibiting the SPL activity
Procedure: A mouse thymic epithelial cell line (IT-79MTNC3 cells, The Cell Bank Division of Japan Health Sciences Foundation) was cultured using Dulbecco's Modified Eagle Medium (DMEM, Invitrogen) containing 10% fetal bovine serum (FBS) (DMEM-10% FBS) at 37° C. in the presence of 5% CO2. When the cells were used for transfection or assay, the cells were detached with 0.05% trypsin-EDTA (Invitrogen), followed by centrifugation, thereby collecting the cells. When the cells were treated with a compound or used for incorporating ^3H-dhSph, DMEM containing 0.1% bovine serum albumin (BSA, Sigma) (DMEM-0.1% BSA) or vitamin B6 group-depleted Dulbecco's Modified Eagle Medium (VB6-free DMEM, Cell Science & Technology Institute, Inc.) containing 0.1% BSA (VB6-free DMEM-0.1% BSA) was used.
In order to evaluate the activity of a test compound for accumulating ^3H-dhS1P, IT-79MTNC3 cells were suspended in DMEM-10% FBS containing 25 μM fumonisin B1, and seeded in a 96-well plate for cell culture at 1×10^4 cells/well, and then cultured at 37° C. in the presence of 5% CO2 for a whole day and night. On the next day, the culture supernatant was first removed, and then, 40 μL of DMEM-0.1% BSA (or VB6-free DMEM-0.1% BSA) containing a serially diluted test compound was added thereto, and the cells were cultured at 37° C. in the presence of 5% CO2 for 4.5 hours. Thereafter, 10 μL of DMEM-0.1% BSA (or VB6-free DMEM-0.1% BSA) containing 83 nM ^3H-dhSph and 5 μM dhSph was added thereto, and the cells were cultured at 37° C. in the presence of 5% CO2 for 30 minutes. After the culture supernatant was removed, 70 μL of a cell lysis buffer was added thereto, and the resulting mixture was left at room temperature for 2 hours. A 50 μL portion of the resulting cell lysate was mixed with SPA beads (obtained by being diluted to 8 times such that glycerol was contained at 50% in the final concentration), which were previously dispensed into a white 96-well plate at 20 μL/well. Then, the plate was covered with a transparent plate seal and left overnight at room temperature under shading. On the next day, the radioactivity thereof was measured using a microplate scintillation counter. In the case of using VB6-free DMEM, before the culture medium containing the test compound was added, washing was carried out twice with 150 μL of VB6-free DMEM-0.1% BSA, thereby preventing the carryover of the vitamin B6 group contained in DMEM used when seeding.

[4] = in the presence of 100 nM pyridoxine

| inhibitory activity against the SPL activity ([3]; in the presence 1 μM pyridoxine) | EC50 [3, 4] [µM] | inhibitory activity against the SPL activity ([3]; normal DMEM) | effective concentration in SPA as compared with normal DMEM ([3]; VB6-free DMEM, FIG. 5(1)) | EC50 ([3]; in the presence of 1 μM pyridoxine) [µM] | EC50 ([3]; normal DMEM (containing about 20 μM pyridoxine)) [µM] | response by SPA (accumulation of 3H-dhS1P) ([3]; normal conditions (DMEM), FIG. 4(1)) | Compound | activity on SPL activity in the lysate ([1]; VB6-free DMEM, FIG. 5(3)) | activity on amount of intracellular S1P ([2]; VB6-free DMEM, FIG. 5(2)) | activity in SPA (accumulation of 3H-dhS1P) ([3]; VB6-free DMEM, FIG. 5(1)) | activity on SPL activity in the lysate ([1]; normal conditions (DMEM), FIG. 4(3)) | activity on amount of intracellular S1P ([2]; normal conditions (DMEM), FIG. 4(2)) |
| --- | --- | --- | --- | --- | --- | --- | --- | --- | --- | --- | --- | --- |
| could not be observed | ~250 | could not be observed | – | – | – | – | CC(=O)c1nc(C(O)C(O)C(O)CO)c[nH]1 (stereo not drawn) [THI, 2-acetyl-4-tetrahydroxybutylimidazole] | exhibited their activity in substantially the same concentration range | exhibited their activity in substantially the same concentration range | concentration-dependent activity was detected | – | – |
| – | 0.027 | – | significantly decreased | 1.6 | 46 | concentration-dependent response | Cc1ncc(CO)c(C)c1O [DOP, 4-deoxypyridoxine] | exhibited their activity in substantially the same concentration range | exhibited their activity in substantially the same concentration range | – | detected in substantially the same concentration range | detected in substantially the same concentration range |
